In US8822211B2, “Device and method for concentrating and detecting pathogenic microbes from blood products and/or their derivatives” (Becton Dickinson Infusion Therapy Systems Inc., priority 2001, dated 2014):
Values joined by “and” are separate entries in the source; they are usually repeats but may differ in a detail not shown here. Identical values can stand only once.

Assays:
Assay type in all cases: cell-based
[1] = tested on: Staphylococcus epidermidis; experiment: Platelet aggregation with ADP in the presence of pathogenic microbes, bacteria counting; conditions: 10 μM ADP
Procedure: Platelet aggregation in the presence of ADP comprised the following steps:
a cryobead of Staphylococcus epidermidis was introduced into a tube of 9 ml of tryptone soy broth and incubated at 37° C. for 18-24 hours;
onto 400 μl of platelet concentrate there was added 50 μl of the suspension of Staph. epidermidis and 50 μl of ADP;
(§1) the tubes were agitated manually for 5 minutes at ambient temperature;
500 μl of PBS buffer was added;
filtration was performed on a filter with a porosity of 5 μm;
dilutions were made in series of 1/20 and 1/10 and 1/10;
100 μl of the sample was filtered on a CB04 membrane;
labeling with an esterase was performed; and
The pathogenic microbes were seeded at a high concentration to augment a possible trapping effect. ADP was added to the platelets and the bacteria at a concentration of […].

[2] = tested on: platelets (platelet concentrate PC 6); experiment: Platelet aggregation with thrombin, counting of residual platelets after 11 μm filtration; conditions: 10 IU thrombin per test, PC 6, 5 minutes, 11 μm filter
Procedure: Thrombin is a strong agonist of platelet aggregation. Thrombin solutions (reference T8885 Sigma) were prepared at a concentration of 100 IU/ml when used at the rate of 10 IU/test and in diluted solution form (100 μl of thrombin mother solution with the addition of 900 μl of PBS buffer) when used at the rate of 1 IU/test.
Platelet aggregation by the intermediary of thrombin comprised:
placing 160 μl of platelet concentrate in a tube to which was added 20 μl of PBS buffer and 20 μl of thrombin;
as §1
800 μl of PBS buffer was added to the tubes;
the content of the tubes was filtered on a filter with a porosity of 11 μm;
dilutions were created in series 1/20 to 1/10 from the filtrates;
[…] of each dilution of the filtrate on a CB04 membrane were filtered;
an esterase labeling was performed; and
the platelets possibly retained on the membrane were counted.

E. coli = experiment: Platelet aggregation with thrombin in the presence of pathogenic microbes, bacteria counting; conditions: for Counting results (E. coli): PC 6, 11 μm filter
Procedure: The experimental studies performed to evaluate the aggregation of pathogenic microbes in the presence of thrombin comprised the following steps:
a cryobead of E. coli was introduced into a tube of 9 ml of tryptone soy broth and incubated at 37° C. for 18-24 hours;
160 μl of platelet concentrate was added to 20 μl of the E. coli suspension and 20 μl of thrombin;
the tube was agitated manually for 5 minutes at ambient temperature;
800 μl of PBS buffer was added;
filtration was performed through a filter of 11 μm porosity;
dilutions in series were performed: 1/20 and 1/10 and 1/10;
filtration was performed on 100 μl of sample on a CB04 membrane;
labeling with esterase was performed; and […]

| Compound | bacteria recovered after the aggregation step ([1]; PC 6) | Concentration bacteria/ml ([1]; PC 6, 5 μm filter) | Results (bacteria count) ([1]; PC 6, 5 μm filter) | platelet count after aggregation and filtration [2] | Counting results (E. coli) (E. coli; 1 IU thrombin) | Counting results (E. coli) (E. coli; 10 IU thrombin) | clot formation after addition (E. coli; platelet concentrate with E. coli) |
| --- | --- | --- | --- | --- | --- | --- | --- |
| Nc1ncnc2c1ncn2[C@@H]1O[C@H](COP(=O)(O)OP(=O)(O)O)[C@@H](O)[C@H]1O [ADP] | 74% | 4.7E+07 bacteria/ml | 492 and 441 | – | – | – | – |
| Thrombin | – | – | – | 44 and 30 | 140 and 167 | 109 and 122 | A clot appeared almost instantly |
